# Target: T1, human GR (Homo sapiens, UniProt P04150)
# T1 construct: purchased Indigo Biosciences
# T1 sequence (P04150 1-777): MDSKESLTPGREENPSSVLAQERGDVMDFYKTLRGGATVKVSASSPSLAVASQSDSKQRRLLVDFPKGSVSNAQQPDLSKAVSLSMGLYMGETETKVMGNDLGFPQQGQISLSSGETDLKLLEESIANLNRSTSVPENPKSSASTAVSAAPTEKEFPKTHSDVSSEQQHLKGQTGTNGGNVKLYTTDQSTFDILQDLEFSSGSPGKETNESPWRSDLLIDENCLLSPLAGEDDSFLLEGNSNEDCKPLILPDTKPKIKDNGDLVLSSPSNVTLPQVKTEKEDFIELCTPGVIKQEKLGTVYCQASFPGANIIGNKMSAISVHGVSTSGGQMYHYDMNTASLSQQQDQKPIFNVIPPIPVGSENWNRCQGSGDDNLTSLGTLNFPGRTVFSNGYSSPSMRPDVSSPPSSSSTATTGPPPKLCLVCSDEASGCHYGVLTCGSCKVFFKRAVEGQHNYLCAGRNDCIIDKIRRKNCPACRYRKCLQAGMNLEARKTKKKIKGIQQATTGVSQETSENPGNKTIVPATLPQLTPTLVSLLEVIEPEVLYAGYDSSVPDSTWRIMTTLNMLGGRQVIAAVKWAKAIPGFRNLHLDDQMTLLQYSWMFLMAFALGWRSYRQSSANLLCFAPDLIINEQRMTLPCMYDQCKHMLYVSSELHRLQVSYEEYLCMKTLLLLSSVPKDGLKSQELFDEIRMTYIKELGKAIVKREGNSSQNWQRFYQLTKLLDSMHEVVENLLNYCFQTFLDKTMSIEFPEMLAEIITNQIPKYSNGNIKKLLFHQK
# Assay: human GR antagonist assay (Indigo Biosciences)
# Type: cell-based
# Text: The activity of a compound can be determined using various known methods. For example, GR assays can be used. Such GR assays include binding assays using, for example, cells transfected with the human glucocorticoid receptor (NR3C1). Several cell based model systems that allow sensitive detection and monitoring of steroids or other compounds with GR bioactivity are known. Most cell based GR reporter models use transgenic gene constructs that include a glucocorticoid response element (GRE) that controls reporter gene (e.g., lucifersrase) expression. For example, a human GR Reporter Assay System is commercially available from Indigo Biosciecnes. […] The principle application of such an assay product is to quantify functional activities, either agonist or antagonist, that a compound may exert against the human glucocorticoid receptor.
# The activity of certain compounds were tested in a human GR antagonist assay (Indigo Biosciences).
SMILES,HillSlope (Table 1),IC50 (nM) (Table 1),EC50 (Table A),IC50 (text of Example 2)
"CC#C[C@]1(O)CC[C@H]2[C@@H]3CCC4=CC(=O)CCC4=C3[C@@H](c3ccc(N(C)C)cc3)C[C@@]21C [Mifepristone, reference compound]",0.8706,–,–,–
"Cc1ncccc1NC(=O)c1ccc2c(c1)CCC1=C3C[C@H](O)C[C@]3(C)CC[C@]12Cc1ccccc1 [Compound A, (9S,13S,16R)-9-benzyl-16-hydroxy-13-methyl-N-(2-methylpyridin-3-yl)-7,9,11,12,13,15,16,17-octahydro-6H-cyclopenta[α]phenanthrene-3-carboxamide]",–,No activity,not active,not active

# Source: US20230212215A1, “GLUCOCORTICOID RECEPTOR MODULATORS” (TRUSTEES OF DARTMOUTH COLLEGE, priority 2020, published 2023)
